Test results reported in patent US5525604A, “4-aminopyrimidine derivatives” (Ono Pharmaceutical Co., Ltd., priority 1994, dated 1996).
Structures can show the parent of a compound that is named as a salt.

Legend:
cGMP-PDE = cGMP-PDE (Homo sapiens, UniProt O76074); assay: Inhibitory effect on cGMP-PDE (PDE IC isolated from human platelets, 3H-cGMP substrate); type: biochemical; settings: 0.2 μM 3H-cGMP, pH 8.0, 2.5% DMSO
TXA2 synthetase = biological target: T1, TXA2 synthetase (Rattus norvegicus, UniProt P49430); assay: Inhibitory effect on TXA2 synthetase (TXB2 by EIA in A23187-stimulated rat whole blood); type: cell-based, rat (Male Wistar rats); settings: rat heparinized whole blood, Ca ionophore A23187, TXB2 by EIA, 37° C.
T1 construct: whole blood was collected from abdominal aorta; from tissue; host or cells: heparinized whole blood of male Wistar rats (mainly platelets)
T1 sequence (P49430 1-533): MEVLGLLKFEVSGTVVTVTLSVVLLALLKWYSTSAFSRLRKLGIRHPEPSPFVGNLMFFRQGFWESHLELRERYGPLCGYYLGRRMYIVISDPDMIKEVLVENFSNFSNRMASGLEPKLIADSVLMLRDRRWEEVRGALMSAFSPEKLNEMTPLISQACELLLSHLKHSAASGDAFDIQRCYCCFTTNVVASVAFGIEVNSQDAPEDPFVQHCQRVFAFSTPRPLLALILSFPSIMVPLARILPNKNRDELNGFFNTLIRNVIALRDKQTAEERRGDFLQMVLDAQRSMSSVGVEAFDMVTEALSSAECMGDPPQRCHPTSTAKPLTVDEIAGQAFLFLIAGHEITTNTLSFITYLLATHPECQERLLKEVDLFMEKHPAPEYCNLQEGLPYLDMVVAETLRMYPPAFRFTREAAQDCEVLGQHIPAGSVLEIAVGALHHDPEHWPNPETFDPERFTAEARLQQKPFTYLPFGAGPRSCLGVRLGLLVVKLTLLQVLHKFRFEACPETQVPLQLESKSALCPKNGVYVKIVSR
Description: (2) Inhibitory effect on TXA2 synthetase
Male Wistar rats were starved overnight. 500 μL of heparinized (10 U/mL) whole blood was collected from abdominal aorta using polyethylene syringe (needle: 22 or 26 G). The blood freshly drawn from animal was preincubated with 5 μL Of test compound (concentration 10 μM) at 37° C. Five minutes later, 2.5 μL of 6 mM of Ca ionophore A23187 (final concentration of […]) was added into tube, and incubation mixture was further incubated for 15 min. The reaction was terminated by centrifugation of tubes at 12,000 rpm for 2 min. TXB2 content in the supernatant was determined by EIA as follows.
1 mL of 0.5M glycine-HCl buffer (pH 3.2) was added to 100 μL of sample. The samples were mixed well and centrifuged at 1,700 G for 10 min. at 4° C. The extracted supernatant was applied to a SEP-PAK (registered Trade Mark) C18 cartridge (Waters Assoc.). After washing with 10 mL of distilled water followed by 10 mL each of 15% ethanol and petroleum ether, the sample was eluted with 3 mL of ethyl acetate. The ethyl acetate fraction was evaporated to dryness under gentle N2 stream and the residue was dissolved in EIA buffer (final volume of 1 mL) following the addition of […] of 0.01M NaHCO3-NaOH buffer (pH 10.0). EIA for TXB2 was carried out according to a legend attached to the kit (Chyman Chemical Co., inc.) and calculated inhibition percent. Overall recovery of TXB2 in this extraction procedure was 90%..

Structure (SMILES) | IC50 (cGMP-PDE) [µM] | inhibition at 10 µM (TXA2 synthetase) [%]
Cc1nc(-n2ccnc2)nc(NCc2ccccc2)c1C [1(f), 2-(1-Imidazolyl)-5,6-dimethyl-4-phenylmethylaminopyrimidine] | 3.65 | 
c1ccc(CNc2nc(-n3ccnc3)ncc2Cc2ccccc2)cc1 [1(d), 2-(1-Imidazolyl)-5-phenylmethyl-4-phenylmethylaminopyrimidine] | 1 | 
c1ccc(CNc2ccnc(-n3ccnc3)n2)cc1 [1(a), 2-(1-Imidazolyl)-4-phenylmethylaminopyrimidine] | 38 | 
CCc1cnc(-n2ccnc2)nc1NCc1ccccc1 [1(c), 2-(1-Imidazolyl)-5-ethyl-4-phenylmethylaminopyrimidine] | 2.5 | 
Cc1cnc(-n2ccnc2)nc1NCc1ccccc1 [1(e), 2-(1-Imidazolyl)-5-methyl-4-phenylmethylaminopyrimidine] | 18 | 
COCCNc1nc(-n2ccnc2)ncc1Cc1ccc(OC)cc1 [1(i), 2-(1-Imidazolyl)-5-(4-methoxyphenyl)methyl-4-(2-methoxyethyl)aminopyrimidine] | 3.5 | 
COc1ccc(Cc2cnc(-n3ccnc3)nc2NCc2ccccc2)cc1 [1(j), 2-(1-Imidazolyl)-5-(4-methoxyphenyl)methyl-4-phenylmethylaminopyrimidine] | 0.78 | 94
COCCNc1nc(-n2ccnc2)ncc1Cc1cccc(OC)c1 [1(g), 2-(1-Imidazolyl)-5-(3-methoxyphenyl)methyl-4-(2-methoxyethyl)aminopyrimidine] | 3.8 | 
c1ccc(-c2cnc(-n3ccnc3)nc2NCc2ccc3c(c2)OCO3)cc1 [1(bb)] | 0.014 | 90
c1ccc(CNc2nc(-n3ccnc3)ncc2COc2ccccc2)cc1 [1(k), 2-(1-Imidazolyl)-5-phenoxymethyl-4-phenylmethylaminopyrimidine dihydrochloride] | 0.76 | 
COc1ccc(Cc2cnc(-n3ccnc3)nc2NCCOCCO)cc1 [1(h), 2-(1-Imidazolyl)-5-(4-methoxyphenyl)methyl-4-[2-(2-hydroxyethoxy)ethyl]aminopyrimidine] | 0.7 | 99

Now from value to molecule:

IC50 (cGMP-PDE) [µM] | inhibition at 10 µM (TXA2 synthetase) [%] | Structure (SMILES)
1.25 |  | C=C(Cl)c1cnc(-n2ccnc2)nc1NCc1ccccc1 [1(m), 2-(1-Imidazolyl)-5-(1-chlorovinyl)-4-phenylmethylaminopyrimidine hydrochloride]
0.23 | 100 | COc1cccc(CNc2nc(-n3ccnc3)ncc2-c2cccs2)c1 [1(t), 2-(1-Imidazolyl)-5-(2-thienyl)-4-(3-methoxyphenyl)methylaminopyrimidine hydrochloride]
2 | 83 | c1cncc(CNc2nc(-n3ccnc3)ncc2-c2cccs2)c1 [1(w), 2-(1-Imidazolyl)-5-(2-thienyl)-4-(3-pyridyl)methylaminopyrimidine dihydrochloride]
0.12 | 65 | c1ccc(CNc2nc(-n3ccnc3)ncc2-c2nccs2)cc1 [1(o), 2-(1-Imidazolyl)-5-(2-thiazolyl)-4-phenylmethylaminopyrimidine hydrochloride]
0.35 |  | c1csc(-c2cnc(-n3ccnc3)nc2NCc2cccc3ccccc23)c1 [1(r), 2-(1-Imidazolyl)-5-(2-thienyl)-4-(1-naphthyl)methylaminopyrimidine]
1 | 96 | c1coc(CNc2nc(-n3ccnc3)ncc2-c2cccs2)c1 [1(u), 2-(1-Imidazolyl)-5-(2-thienyl)-4-(2-furyl)methylaminopyrimidine hydrochloride]
6 | 87 | COCCNc1nc(-n2ccnc2)ncc1-c1cccs1 [1(x), 2-(1-Imidazolyl)-5-(2-thienyl)-4-(2-methoxyethyl)aminopyrimidine hydrochloride]
0.31 | 100 | c1csc(CNc2nc(-n3ccnc3)ncc2-c2cccs2)c1 [1(v), 2-(1-Imidazolyl)-5-(2-thienyl)-4-(2-thienyl)methylaminopyrimidine hydrochloride]
12.5 | 100 | OCCOCCNc1nc(-n2ccnc2)ncc1-c1cccs1 [1(q), 2-(1-Imidazolyl)-5-(2-thienyl)-4-[2-(2-hydroxyethoxy)ethyl]aminopyrimidine hydrochloride]
 | 90 | c1ccc(CNc2nc(-n3ccnc3)ncc2-c2cccs2)cc1 [1(n), 2-(1-Imidazolyl)-5-(2-thienyl)-4-phenylmethylaminopyrimidine hydrochloride]
0.025 | 90 | c1csc(-c2cnc(-n3ccnc3)nc2NCc2ccc3c(c2)OCO3)c1 [1(p), 2-(1-Imidazolyl)-5-(2-thienyl)-4-(1,3-dioxaindan-5-yl)methylaminopyrimidine hydrochloride]
2.7 | 89 | c1ccc(CONc2nc(-n3ccnc3)ncc2-c2cccs2)cc1 [1(y), 2-(1-Imidazolyl)-5-(2-thienyl)-4-phenylmethoxyaminopyrimidine hydrochloride]
0.061 |  | Clc1ccc(CNc2nc(-n3ccnc3)ncc2-c2cccs2)cc1 [1(z), 2-(1-Imidazolyl)-5-(2-thienyl)-4-(4-chlorophenyl)methylaminopyrimidine hydrochloride]
21 |  | COc1cccc(Cc2cnc(-n3ccnc3)nc2NCCOCCO)c1 [Example 1, 2-(1-Imidazolyl)-4-[2-(2-hydroxyethoxy)ethyl]amino-5-(3-methoxyphenyl)methylpyrimidine]
 | 75 | c1cncc(-c2ncc(-c3cccs3)c(NCc3ccc4c(c3)OCO4)n2)c1 [Example 2, 2-(3-Pyridyl)-5-(2-thienyl)-4-(1,3-dioxaindan-5-yl)methylaminopyrimidine hydrochloride]
35 | 63 | c1ccc(CNc2nc(-n3ccnc3)ncc2Cn2ccnc2)cc1 [1(l), 2-(1-Imidazolyl)-5-(1-imidazolyl)methyl-4-phenylmethylaminopyrimidine]
